Measured values from PubChem BioAssay (NCI).
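Grown in 96-well plates, cells were treated for 48 hours with each compound at five concentrations. Insufficient inhibition: endpoint recorded as highest concentration tested. At the GI50, growth is halved. The concentration for full growth arrest is given as TGI.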

Experiments:
Experiment in all cases: NCI tumour cell line growth inhibition, 48 h
T-47D breast = system: T-47D breast
OVCAR-5 ovarian = system: OVCAR-5 ovarian
COLO 205 colon = system: COLO 205 colon
SNB-19 CNS = system: SNB-19 CNS
NCI-H226 lung = system: NCI-H226 lung
DU-145 prostate = system: DU-145 prostate
UO-31 renal = system: UO-31 renal
ACHN renal = system: ACHN renal
RPMI-8226 leukemia = system: RPMI-8226 leukemia
NCI-H522 lung = system: NCI-H522 lung
MDA-MB-231 breast = system: MDA-MB-231 breast
HOP-62 NSCLC = system: HOP-62 NSCLC
HCT-116 colon = system: HCT-116 colon
K-562 leukemia = system: K-562 leukemia
SF-295 CNS = system: SF-295 CNS
HL-60(TB) leukemia = system: HL-60(TB) leukemia
KM12 colon = system: KM12 colon
CAKI-1 renal = system: CAKI-1 renal
OVCAR-4 ovarian = system: OVCAR-4 ovarian
CCRF-CEM leukemia = system: CCRF-CEM leukemia
UACC-62 melanoma = system: UACC-62 melanoma
SF-539 CNS = system: SF-539 CNS
786-0 renal = system: 786-0 renal
SF-268 CNS = system: SF-268 CNS
U251 CNS = system: U251 CNS
HS 578T breast = system: HS 578T breast
A498 renal = system: A498 renal
SK-MEL-28 melanoma = system: SK-MEL-28 melanoma
NCI/ADR-RES ovarian = system: NCI/ADR-RES ovarian
SN12C renal = system: SN12C renal
SK-OV-3 ovarian = system: SK-OV-3 ovarian
MALME-3M melanoma = system: MALME-3M melanoma
SW-620 colon = system: SW-620 colon
NCI-H23 lung = system: NCI-H23 lung
IGROV1 ovarian = system: IGROV1 ovarian
HOP-92 NSCLC = system: HOP-92 NSCLC
SK-MEL-2 melanoma = system: SK-MEL-2 melanoma
OVCAR-8 ovarian = system: OVCAR-8 ovarian
LOX IMVI melanoma = system: LOX IMVI melanoma
UACC-257 melanoma = system: UACC-257 melanoma
RXF 393 renal = system: RXF 393 renal
MOLT-4 leukemia = system: MOLT-4 leukemia
HCT-15 colon = system: HCT-15 colon
MDA-MB-435 = system: MDA-MB-435
NCI-H460 lung = system: NCI-H460 lung
SK-MEL-5 melanoma = system: SK-MEL-5 melanoma
EKVX NSCLC = system: EKVX NSCLC
A549 NSCLC = system: A549 NSCLC
HT29 colon = system: HT29 colon
TK-10 renal = system: TK-10 renal
SNB-75 CNS = system: SNB-75 CNS
MCF7 breast = system: MCF7 breast
BT-549 breast = system: BT-549 breast
OVCAR-3 ovarian = system: OVCAR-3 ovarian
PC-3 prostate = system: PC-3 prostate
HCC-2998 colon = system: HCC-2998 colon
SR leukemia = system: SR leukemia

Q: For `COc1cc2c3c(n(C)c(=O)c2cc1OC)-c1cc2c(cc1/C3=C\CN)OCO2`, which GI50 (T-47D breast) is on record?
A: 17.6 nM

Q: And the TGI (T-47D breast)?
A: 639 nM

Q: What about the GI50 (OVCAR-5 ovarian) of the same molecule?
A: 2160 nM

Q: And the TGI (OVCAR-5 ovarian)?
A: > 35700 nM

Q: What about the GI50 (COLO 205 colon) of the same molecule?
A: 156 nM

Q: And the GI50 (SNB-19 CNS)?
A: < 40.5 nM

Q: And the GI50 (NCI-H226 lung)?
A: 515 nM

Q: What about the TGI (NCI-H226 lung) of the same molecule?
A: 15200 nM

Q: What about the GI50 (DU-145 prostate) of the same molecule?
A: 346 nM

Q: What about the TGI (DU-145 prostate) of the same molecule?
A: 37100 nM

Q: What about the GI50 (UO-31 renal) of the same molecule?
A: 621 nM

Q: What about the TGI (UO-31 renal) of the same molecule?
A: > 41100 nM

Q: And the GI50 (ACHN renal)?
A: 37 nM

Q: What about the TGI (ACHN renal) of the same molecule?
A: 625 nM

Q: What about the GI50 (RPMI-8226 leukemia) of the same molecule?
A: 307 nM

Q: And the TGI (RPMI-8226 leukemia)?
A: 4900 nM

Q: And the GI50 (NCI-H522 lung)?
A: 835 nM

Q: What about the TGI (NCI-H522 lung) of the same molecule?
A: > 43500 nM

Q: And the GI50 (MDA-MB-231 breast)?
A: 5800 nM

Q: What about the TGI (MDA-MB-231 breast) of the same molecule?
A: > 35400 nM

Q: What about the GI50 (HOP-62 NSCLC) of the same molecule?
A: 189 nM

Q: What about the TGI (HOP-62 NSCLC) of the same molecule?
A: 17000 nM

Q: What about the GI50 (HCT-116 colon) of the same molecule?
A: 71.3 nM

Q: What about the TGI (HCT-116 colon) of the same molecule?
A: 437 nM

Q: What about the GI50 (K-562 leukemia) of the same molecule?
A: 106 nM

Q: What about the TGI (SF-295 CNS) of the same molecule?
A: 614 nM

Q: What about the GI50 (HL-60(TB) leukemia) of the same molecule?
A: 294 nM

Q: And the TGI (HL-60(TB) leukemia)?
A: > 100000 nM

Q: And the GI50 (KM12 colon)?
A: 1180 nM

Q: What about the TGI (KM12 colon) of the same molecule?
A: 12100 nM

Q: What about the GI50 (CAKI-1 renal) of the same molecule?
A: 132 nM

Q: What about the TGI (CAKI-1 renal) of the same molecule?
A: 1810 nM

Q: And the GI50 (OVCAR-4 ovarian)?
A: 5550 nM

Q: What about the TGI (OVCAR-4 ovarian) of the same molecule?
A: > 27200 nM

Q: What about the GI50 (CCRF-CEM leukemia) of the same molecule?
A: 124 nM

Q: What about the TGI (CCRF-CEM leukemia) of the same molecule?
A: 6970 nM

Q: And the GI50 (UACC-62 melanoma)?
A: 73.1 nM

Q: What about the GI50 (SF-539 CNS) of the same molecule?
A: 227 nM

Q: And the GI50 (786-0 renal)?
A: 314 nM

Q: What about the TGI (786-0 renal) of the same molecule?
A: 17300 nM

Q: What about the GI50 (SF-268 CNS) of the same molecule?
A: 433 nM

Q: And the TGI (SF-268 CNS)?
A: > 79200 nM

Q: What about the GI50 (U251 CNS) of the same molecule?
A: 39.5 nM

Q: And the TGI (U251 CNS)?
A: 3310 nM

Q: What about the GI50 (HS 578T breast) of the same molecule?
A: 34900 nM

Q: And the TGI (HS 578T breast)?
A: > 100000 nM

Q: What about the GI50 (A498 renal) of the same molecule?
A: 3070 nM

Q: And the TGI (A498 renal)?
A: 86800 nM

Q: What about the GI50 (SK-MEL-28 melanoma) of the same molecule?
A: 7380 nM

Q: What about the TGI (SK-MEL-28 melanoma) of the same molecule?
A: > 48500 nM

Q: And the GI50 (NCI/ADR-RES ovarian)?
A: 1210 nM

Q: And the TGI (NCI/ADR-RES ovarian)?
A: 68700 nM

Q: What about the GI50 (SN12C renal) of the same molecule?
A: 565 nM

Q: And the TGI (SN12C renal)?
A: > 100000 nM

Q: And the GI50 (SK-OV-3 ovarian)?
A: 412 nM

Q: And the GI50 (MALME-3M melanoma)?
A: 2170 nM

Q: What about the TGI (MALME-3M melanoma) of the same molecule?
A: > 40400 nM

Q: What about the TGI (SW-620 colon) of the same molecule?
A: > 41300 nM

Q: And the GI50 (NCI-H23 lung)?
A: 249 nM

Q: What about the TGI (NCI-H23 lung) of the same molecule?
A: 8770 nM

Q: What about the GI50 (IGROV1 ovarian) of the same molecule?
A: 1350 nM

Q: And the TGI (IGROV1 ovarian)?
A: > 100000 nM

Q: And the GI50 (HOP-92 NSCLC)?
A: 2090 nM

Q: And the TGI (HOP-92 NSCLC)?
A: > 77100 nM

Q: And the GI50 (SK-MEL-2 melanoma)?
A: 24100 nM

Q: What about the TGI (SK-MEL-2 melanoma) of the same molecule?
A: > 100000 nM

Q: What about the GI50 (OVCAR-8 ovarian) of the same molecule?
A: 774 nM

Q: And the TGI (OVCAR-8 ovarian)?
A: > 51900 nM

Q: What about the GI50 (LOX IMVI melanoma) of the same molecule?
A: 133 nM

Q: What about the TGI (LOX IMVI melanoma) of the same molecule?
A: 1460 nM

Q: And the GI50 (UACC-257 melanoma)?
A: 1440 nM

Q: And the TGI (UACC-257 melanoma)?
A: 20400 nM

Q: And the GI50 (RXF 393 renal)?
A: 3170 nM

Q: And the TGI (RXF 393 renal)?
A: > 45800 nM

Q: And the GI50 (MOLT-4 leukemia)?
A: < 20.8 nM

Q: What about the TGI (MOLT-4 leukemia) of the same molecule?
A: 433 nM

Q: And the GI50 (HCT-15 colon)?
A: 778 nM

Q: What about the TGI (HCT-15 colon) of the same molecule?
A: 19800 nM

Q: What about the GI50 (MDA-MB-435) of the same molecule?
A: 819 nM

Q: And the TGI (MDA-MB-435)?
A: 33800 nM

Q: What about the GI50 (NCI-H460 lung) of the same molecule?
A: 87.9 nM

Q: What about the TGI (NCI-H460 lung) of the same molecule?
A: > 24100 nM

Q: What about the GI50 (SK-MEL-5 melanoma) of the same molecule?
A: 296 nM

Q: What about the TGI (SK-MEL-5 melanoma) of the same molecule?
A: 2320 nM

Q: And the GI50 (EKVX NSCLC)?
A: 11600 nM

Q: What about the TGI (EKVX NSCLC) of the same molecule?
A: > 100000 nM

Q: What about the GI50 (A549 NSCLC) of the same molecule?
A: 273 nM

Q: What about the TGI (A549 NSCLC) of the same molecule?
A: 2810 nM

Q: And the GI50 (HT29 colon)?
A: 192 nM

Q: And the TGI (HT29 colon)?
A: 24800 nM

Q: And the GI50 (TK-10 renal)?
A: 4040 nM

Q: And the TGI (TK-10 renal)?
A: 32800 nM

Q: And the GI50 (SNB-75 CNS)?
A: 154 nM

Q: And the TGI (SNB-75 CNS)?
A: 59700 nM

Q: And the GI50 (MCF7 breast)?
A: 236 nM

Q: And the TGI (MCF7 breast)?
A: > 31600 nM

Q: And the TGI (BT-549 breast)?
A: > 100000 nM

Q: What about the GI50 (OVCAR-3 ovarian) of the same molecule?
A: 1580 nM

Q: And the TGI (OVCAR-3 ovarian)?
A: 14800 nM

Q: And the GI50 (PC-3 prostate)?
A: 7030 nM

Q: And the TGI (PC-3 prostate)?
A: > 100000 nM

Q: What about the GI50 (HCC-2998 colon) of the same molecule?
A: 62.8 nM

Q: What about the TGI (HCC-2998 colon) of the same molecule?
A: 589 nM

Q: Which results are given for `C=CCn1c(C)nc2ccc(Nc3nc(Nc4ccc5nc(C)n(CC=C)c5c4)c4ccccc4n3)cc21`?
A: GI50 (OVCAR-5 ovarian): 1700 nM; TGI (OVCAR-5 ovarian): 3090 nM; GI50 (DU-145 prostate): 1850 nM; TGI (DU-145 prostate): 3270 nM; GI50 (ACHN renal): 1640 nM; TGI (ACHN renal): 3010 nM; GI50 (MDA-MB-231 breast): 1340 nM; TGI (MDA-MB-231 breast): 2620 nM; GI50 (UACC-62 melanoma): 1550 nM; TGI (UACC-62 melanoma): 2890 nM; GI50 (SF-539 CNS): 1710 nM; TGI (SF-539 CNS): 3120 nM; GI50 (NCI/ADR-RES ovarian): 2220 nM; TGI (NCI/ADR-RES ovarian): 6070 nM; GI50 (SN12C renal): 1620 nM; TGI (SN12C renal): 2980 nM; GI50 (SK-OV-3 ovarian): 1720 nM; TGI (SK-OV-3 ovarian): 3090 nM; GI50 (SR leukemia): 1520 nM; TGI (SR leukemia): 3980 nM; GI50 (HCC-2998 colon): 1720 nM; TGI (HCC-2998 colon): 3090 nM
